Experimental data: paper PMC2359919, “Molecular targeting of retinoic acid metabolism in neuroblastoma: the role of the CYP26 inhibitor R116010 in vitro and in vivo” (British Journal of Cancer, 2007)

What was measured:
[1] = Effect of R116010 on retinoid concentrations (plasma, liver, tumour) in an SH-SY5Y xenograft model, LC/MS; type: in vivo, CD-1 nude mice; details: female, CD-1 nu/nu (athymic nude), mouse, tumour (SH-SY5Y xenograft), oral; 13cisRA 100 mg kg^−1 alone; SH-SY5Y tumour; 6 h; read-out: Tumour 13cisRA levels, control animals
Experimental: All in vivo experiments were approved by the relevant institutional animal welfare committees, and performed according to national law. Female athymic nude mice (CD-1 nu/nu, Charles River) used for antitumour studies were maintained and handled in isolators, under specific pathogen-free conditions, at 24°C with a 12 h light, 12 h dark cycle. Tumours were generated by implantation of SH-SY5Y cells subcutaneously (s.c.) into one flank of CD-1 nude mice (1 × 10^7 cells per animal).
Treatments began when the tumours were between 7 and 10 mm in length and breadth. Retinoids and R116010 were initially dissolved in DMSO before 10- or 20-fold dilutions in PBS, respectively. For pharmacokinetic studies, the animals were dosed with ATRA or 13cisRA (each 100 mg kg^−1) orally for 0.5, 2 and 6 h. For metabolism studies, animals were treated with R116010 orally at doses of 1.25 or 2.5 mg kg^−1 either immediately before the retinoid being studied, or up to three times (over 1–2 days) before dosing with the retinoid. At termination of experiments, animals were bled under terminal anaesthesia then killed by cervical dislocation. Plasma was immediately removed from the blood by centrifugation at 1000 g for 5 min and snap-frozen in liquid nitrogen in amber Eppendorfs. Tumour and liver samples were removed and snap-frozen, wrapped in foil, in liquid nitrogen.
(§1) Cell pellets obtained from retinoid incubations were re-suspended in 2 ml cell culture medium and disrupted by passing the samples several times through a syringe and hypodermic needle (25G × 1 inches, 0.5 mm × 25 mm; Terumo, Somerset, NJ, USA). Tumour and liver tissues were re-suspended in PBS and homogenised (T25 homogeniser, IKA Laboratories, Staufen, Germany). Retinoids were extracted as described previously ([Veal et al, 2002]; [Armstrong et al, 2005b]). Samples were reconstituted in 200 μl mobile phase A (n-hexane:dichloromethane:propan-2-ol, 400 : 1 : 0.27) and analysed by normal-phase HPLC as described previously ([Veal et al, 2002]). For LC/MS analysis, samples were reconstituted in 200 μl mobile phase A (50% acetonitrile, 50% (0.2%) acetic acid, v v^−1).
(§2) Resolution of retinoids was performed with a Luna C18(2) column (3 μm, 50 mm × 2 mm) using a Perkin Elmer LC (Beaconsfield, UK) system, consisting of a vacuum degasser, two series 200 pumps, a thermostatically controlled series 200 autosampler and a Waters 2487 UV absorbance detector. Retinoic isomers and metabolites were separated by gradient reversed-phase chromatography. An injection volume of 20 μl with a flow rate of 0.2 ml min^−1 was used with mobile phase A (50% acetonitrile, 50% (0.2%) acetic acid, v v^−1) and mobile phase B (acetonitrile, 0.1% acetic acid, v v^−1). Linear gradients were employed between the specified times as follows: 0, 100% A; 5 min, 100% A; 15 min, 100% B; 20 min, 100% B; 23 min, 100% A; 35 min, 100% A. An Applied Biosystems (Warrington, UK) API-2000 LC/MS/MS triple Q (quadrupole) mass spectrometer with electrospray ionisation source, controlled by Analyst software, was operated in single quadrupole negative mode for the detection of compounds.

CYP26A1 = CYP26A1 mRNA expression in neuroblastoma cells, real-time PCR; type: cell-based, human; details: 0.1 μM retinoid, 24 h; panel of neuroblastoma cell lines; relative to SH-SY5Y cells treated with 0.01 μM ATRA
Experimental: (§3) SH-SY5Y, SH-EP (N- and S-type cells respectively derived from the parental line SK-N-SH), LAN6, IMR-32, NGP and GIMEN neuroblastoma cell lines were cultured routinely in RPMI 1640 medium containing fetal calf serum (10%) and L-glutamine (2 mM). Cells were grown at 37°C in a humidified incubator containing 5% CO2.
(§4) 13-cis-Retinoic acid and ATRA were dissolved in DMSO and diluted in cell culture medium to obtain final concentrations of 0.1–10 μM. The final concentration of DMSO in all cases was <0.2%. All experiments were performed in dim light and tubes containing retinoids were wrapped in aluminium foil.
CYP26 short hairpin RNAs (shRNAs) were generated using the siSTRIKE U6 Hairpin Cloning System (Promega, Southampton, UK). The CYP26A1, B1 and Ctrl siRNA sequences were designed using Promega software. […]
(§5) RNA was reverse-transcribed using Promega's Reverse Transcription System according to the manufacturer's instructions, using random hexamer primers. […] As internal standard, β-actin was measured simultaneously using the endogenous control assay provided by Applied Biosystems. […] Standard curves were generated from serial dilutions of cDNA prepared from cells treated with ATRA (1 μM) and the data were analysed using the GeneAmp Sequence Detection System software. CYP26C1 expression was analysed as described previously ([Taimi et al, 2004]).

RARβ = RARβ mRNA expression in SH-SY5Y cells, real-time PCR; type: cell-based, human; details: ATRA 0.01 μM or 13cisRA 0.1 μM with R116010 1 μM vs retinoid alone, 24 h
Experimental: as §3, §4
as §5, with “primers. Real-time PCR was performed on 20 ng cDNA using TaqMan gene expression products for human CYP26A1, CYP26B1, CRABPII, RARβ and MYCN in combination with the TaqMan Universal PCR master mix (Applied Biosystems, Warrington, UK).” for “primers.”

[2] = tested on: mouse mammary carcinoma model; parameters: method as in Van Heusden et al, 2002; details: ref Van Heusden et al, 2002; cited from earlier work
[3] = tested on: SH-SY5Y, NGP, SH-EP and GIMEN cells; experiment: Intracellular all-trans-4-oxo-RA levels in neuroblastoma cells, LC/MS; type: cell-based, human
Experimental: as §3, §4, §1, §2

CC1=C(/C=C/C(C)=C/C=C/C(C)=C\C(=O)O)C(C)(C)CCC1 [13cisRA, 13-cis-retinoic acid]
concentration at 6 h [1]: 220 ± 40 ng/g

CC1=C(/C=C/C(C)=C/C=C/C(C)=C/C(=O)O)C(C)(C)CCC1 [ATRA, all-trans-retinoic acid]
CYP26A1 induction (CYP26A1): induced to various extents in SH-SY5Y, LAN6 and NGP cells

C[C@@H]([C@H](c1ccc(Nc2nc3ccccc3s2)cc1)n1ccnc1)N(C)C [R116010]
Effect on RARβ expression, co-incubation with retinoid (RARβ): significant increases | Antitumour activity as a single agent [2]: exhibits antitumour activity | Decrease in AT-4-oxo-RA levels ([3]; NGP cells, 10 μM 13cisRA with 10 μM R116010, 24 h): 13.2 fold | Reduction in intracellular AT-4-oxo-RA levels ([3]; NGP cells, 10 μM ATRA with 10 μM R116010, 24 h): 3.8 fold | Effect on AT-4-oxo-RA levels ([3]; SH-EP and GIMEN cells, 10 μM 13cisRA with 10 μM R116010, 24 h): no significant effect | Decrease in AT-4-oxo-RA levels ([3]; SH-SY5Y cells, 10 μM 13cisRA with 10 μM R116010, 24 h): 3.5 fold | Reduction in intracellular AT-4-oxo-RA levels ([3]; SH-SY5Y cells, 10 μM ATRA with 10 μM R116010, 24 h): 3 fold | Effect on intracellular AT-4-oxo-RA levels ([3]; low CYP26-expressing cell lines (SH-EP, GIMEN), 10 μM ATRA with 10 μM R116010, 24 h): no significant effect
